Test results published in patent US5129937A, “Pyridyloxypyrimidine derivatives, preparation process thereof, and herbicidal compositions containing the same as active ingredients” (Mitsui Toatsu Chemicals Incorporated, priority 1989, dated 1992).

Tests used:
Assay type in all cases: in vivo
Soybean (Glycine max) [1] = assay: Upland Soil Application Test, crop injury; conditions: 30 g ai/a; soil application before emergence, wettable powder; observed 30 days later
Method: (§1) Resin-made 1/2500-are pots were filled with the soil of an upland field. After they were fertilized, soybean, corn and cotton were seeded and 2-3 cm soil covering was applied. Seeds of redroot pigweed, morningglory (Ipomoea purpurea), common lambsquarters, barnyardgrass, green foxtail, large crabgrass, foxtail meadow and johnsongrass had been uniformly mixed with the soil. They were allowed to germinate in a green house. One day later (before emergence of weeds), a wettable powder prepared from a predetermined amount of each test compound in a similar manner to the method described in Formulation Example 1 was diluted with water and then sprayed evenly at an application rate equal to 10 l per are onto the surface of the soil by means of a pressure-operated ULV (ultra low volume) sprayer. Influence to the crops and weeds were observed 30 days later. The results are shown in Table 3, in which the degree of damages of each test plant and the degree of injury to each crop were determined by comparing the air-dried weights of the test plant and crop with those of the corresponding plant and crop in untreated pots and are shown in accordance with the following standard: […]

[2] = test system: Cotton (Gossypium indicum); assay: Upland Soil Application Test, crop injury; conditions: 30 g ai/a; soil application before emergence, wettable powder; observed 30 days later
Method: as §1

Corn (Zea maize) [3] = assay: Upland Soil Application Test, crop injury; conditions: 30 g ai/a; soil application before emergence, wettable powder; observed 30 days later
Method: as §1

Rice (Oryza sativa) [4] = assay: Submerged Soil Treatment Test (Growth Stage Treatment), crop injury; conditions: 30 g ai/a, growth stage treatment (barnyardgrass two-leaf stage), granule, transplanted rice, observed 30 days later
Method: (§2) 1/5000-are Wagner pots were filled with soil. Seeds or tubers of barnyardgrass, bulrush and Sagittaria pygmaea were seeded or planted under submerged condition. Two pairs of rice seedlings (2-3 leaf stage), which had been reared in advance, were transplanted to each pot and were allowed to grow in a green house. Each pair consisted of two rice seedlings. When the barnyardgrass grew to the two-leaf stage, each pot was treated with a granule which had been prepared by processing a predetermined amount of the test composition in accordance with a similar method to the method described in Formulation Example 9. The state of emergence of weeds and the state of injury of rice were observed 30 days later. In the table, the degrees of damages of the test plants and the degrees of injury of the rice are shown in a similar manner to Example 2.

Soybean (Glycine max) [5] = assay: Upland Foliar Application Test, crop injury; conditions: 30 g ai/a; foliar application at 2-3 leaf stage, emulsion; observed on the 30th day
Text: (§3) Resin-made 1/10000-are pots were filled with the soil of an upland field. Redroot pigweed, morningglory (Ipomoea pupurea), common lambsquarters, foxtail meadow, johnsongrass, barnyardgrass, green foxtail, large crabgrass, soybean, corn and cotton were separately seeded and were allowed to germinate in a green house. When each plant grew to the stage of 2-3 leaves, an emulsion formulated from a predetermined amount of each test compound in a similar manner to the method described in Formulation Example 11 was diluted with water and then sprayed at a predetermined application rate by means of a pressure-operated ULV (ultra low volume) sprayer. The application rate was controlled at 5 l per are. Influence to the crops and weeds were observed on the 30th day after the spray of the herbicides. The results are shown in Table 4 in which the degree of damages of each test plant and the degree of injury to each crop are shown in a similar manner to Test 2.

[6] = test system: Cotton (Gossypium indicum); assay: Upland Foliar Application Test, crop injury; conditions: 30 g ai/a; foliar application at 2-3 leaf stage, emulsion; observed on the 30th day
Text: as §3

Corn (Zea maize) [7] = assay: Upland Foliar Application Test, crop injury; conditions: 30 g ai/a; foliar application at 2-3 leaf stage, emulsion; observed on the 30th day
Text: as §3

[8] = test system: Barnyardgrass (Echinochloa crus-galli); assay: Upland Foliar Application Test; conditions: 30 g ai/a; foliar application at 2-3 leaf stage, emulsion; observed on the 30th day
Text: as §3

Foxtail meadow [9] = assay: Upland Foliar Application Test; conditions: 30 g ai/a; foliar application at 2-3 leaf stage, emulsion; observed on the 30th day
Text: as §3

[10] = test system: Crabgrass (Digitaria adsendens); assay: Upland Foliar Application Test; conditions: 30 g ai/a; foliar application at 2-3 leaf stage, emulsion; observed on the 30th day
Text: as §3

Redroot Pigweed [11] = assay: Upland Foliar Application Test; conditions: 30 g ai/a; foliar application at 2-3 leaf stage, emulsion; observed on the 30th day
Text: as §3

[12] = test system: Foxtail (Setaria viridis); assay: Upland Foliar Application Test; conditions: 30 g ai/a; foliar application at 2-3 leaf stage, emulsion; observed on the 30th day
Text: as §3

Johnsongrass [13] = assay: Upland Foliar Application Test; conditions: 30 g ai/a; foliar application at 2-3 leaf stage, emulsion; observed on the 30th day
Text: as §3

Common lambsquarters [14] = assay: Upland Foliar Application Test; conditions: 30 g ai/a; foliar application at 2-3 leaf stage, emulsion; observed on the 30th day
Text: as §3

Rice (Oryza sativa) [15] = assay: Submerged Soil Treatment Test (Pre-Emergence Treatment), crop injury; conditions: 30 g ai/a, granule, transplanted rice, observed 30 days later
Method: as §2, with “allowed to germinate in a” for “allowed to grow in a”, “rice seedlings. On day later (before emergence of weeds), each pot” for “rice seedlings. When the barnyardgrass grew to the two-leaf stage, each pot”, “injury of rice are” for “injury of the rice are”

[16] = test system: Barnyardgrass (Echinochloa crus-galli); assay: Submerged Soil Treatment Test (Growth Stage Treatment); conditions: 30 g ai/a, growth stage treatment (barnyardgrass two-leaf stage), granule, observed 30 days later
Method: as §2

[17] = test system: Bulrush (Scirpus juncoides); assay: as above; conditions: 30 g ai/a, growth stage treatment (barnyardgrass two-leaf stage), granule, observed 30 days later
Method: as §2

[18] = test system: Arrowhead sp. (Sagittaria pygmaea); assay: as above; conditions: 30 g ai/a, growth stage treatment (barnyardgrass two-leaf stage), granule, observed 30 days later
Method: as §2

[19] = test system: Barnyardgrass (Echinochloa crus-galli); assay: Upland Soil Application Test; conditions: 30 g ai/a; soil application before emergence, wettable powder; observed 30 days later
Method: as §1

Foxtail meadow [20] = assay: Upland Soil Application Test; conditions: 30 g ai/a; soil application before emergence, wettable powder; observed 30 days later
Method: as §1

[21] = test system: Crabgrass (Digitaria adsendens); assay: Upland Soil Application Test; conditions: 30 g ai/a; soil application before emergence, wettable powder; observed 30 days later
Method: as §1

Redroot Pigweed [22] = assay: Upland Soil Application Test; conditions: 30 g ai/a; soil application before emergence, wettable powder; observed 30 days later
Method: as §1

[23] = test system: Foxtail (Setaria viridis); assay: Upland Soil Application Test; conditions: 30 g ai/a; soil application before emergence, wettable powder; observed 30 days later
Method: as §1

Johnsongrass [24] = assay: Upland Soil Application Test; conditions: 30 g ai/a; soil application before emergence, wettable powder; observed 30 days later
Method: as §1

Common lambsquarters [25] = assay: Upland Soil Application Test; conditions: 30 g ai/a; soil application before emergence, wettable powder; observed 30 days later
Method: as §1

| SMILES | Crop injury Soybean (Glycine max) (Soybean (Glycine max) [1]) | Crop injury Cotton (Gossypium indicum) [2] | Crop injury Corn (Zea maize) (Corn (Zea maize) [3]) | Crop injury Rice (Oryza sativa) (Rice (Oryza sativa) [4]) | Crop injury Soybean (Glycine max) (Soybean (Glycine max) [5]) | Crop injury Cotton (Gossypium indicum) [6] | Crop injury Corn (Zea maize) (Corn (Zea maize) [7]) | Herbicidal effects Barnyardgrass (Echinochloa crus-galli) [8] | Herbicidal effects Foxtail meadow (Foxtail meadow [9]) | Herbicidal effects Crabgrass (Digitaria adsendens) [10] | Herbicidal effects Redroot Pigweed (Redroot Pigweed [11]) | Herbicidal effects Foxtail (Setaria viridis) [12] | Herbicidal effects Johnsongrass (Johnsongrass [13]) | Herbicidal effects Common lambquarters (Common lambsquarters [14]) | Crop injury Rice (Oryza sativa) (Rice (Oryza sativa) [15]) | Herbicidal effects Barnyardgrass (Echinochloa crus-galli) [16] | Herbicidal effects Bulrush (Scirpus juncoides) [17] | Herbicidal effects Arrowhead sp. (Sagittaria pygmaea) [18] | Herbicidal effects Barnyardgrass (Echinochloa crus-galli) [19] | Herbicidal effects Foxtail meadow (Foxtail meadow [20]) | also measured |
| --- | --- | --- | --- | --- | --- | --- | --- | --- | --- | --- | --- | --- | --- | --- | --- | --- | --- | --- | --- | --- | --- |
| COc1cc(OC)nc(Oc2cccnc2C2OCCO2)n1 [Compound No. 6] | 0 (91-100 (No damages)) | 0 (91-100 (No damages)) | 0 (91-100 (No damages)) | 0 (91-100 (No damages)) | 0 (91-100 (No damages)) | 0 (91-100 (No damages)) | 0 (91-100 (No damages)) | 4 (6-10 (Severe damages)) | 5 (0-5 (Death)) | 4 (6-10 (Severe damages)) | 5 (0-5 (Death)) | 4 (6-10 (Severe damages)) | 5 (0-5 (Death)) | 4 (6-10 (Severe damages)) | 0 (91-100 (No damages)) | 5 (0-5 (Death)) | 5 (0-5 (Death)) | 3 (11-40 (Medium damages)) | 3 (11-40 (Medium damages)) | 4 (6-10 (Severe damages)) | Herbicidal effects Crabgrass (Digitaria adsendens) [21]: 3 (11-40 (Medium damages)); Herbicidal effects Redroot Pigweed (Redroot Pigweed [22]): 4 (6-10 (Severe damages)); Herbicidal effects Foxtail (Setaria viridis) [23]: 4 (6-10 (Severe damages)); Herbicidal effects Johnsongrass (Johnsongrass [24]): 5 (0-5 (Death)); Herbicidal effects Common lambquarters (Common lambsquarters [25]): 4 (6-10 (Severe damages)) |
| CCOC(OCC)c1ncccc1Oc1nc(OC)cc(OC)n1 [Compound No. 3, 3-(4,6-dimethoxy-2-pyrimidinyloxy)-2-pyridinecarboxaldehyde diethylacetal] | 0 (91-100 (No damages)) | 0 (91-100 (No damages)) | 0 (91-100 (No damages)) | 0 (91-100 (No damages)) | 0 (91-100 (No damages)) | 0 (91-100 (No damages)) | 0 (91-100 (No damages)) | 5 (0-5 (Death)) | 5 (0-5 (Death)) | 5 (0-5 (Death)) | 5 (0-5 (Death)) | 5 (0-5 (Death)) | 5 (0-5 (Death)) | 5 (0-5 (Death)) | 0 (91-100 (No damages)) | 5 (0-5 (Death)) | 5 (0-5 (Death)) | 5 (0-5 (Death)) | 4 (6-10 (Severe damages)) | 5 (0-5 (Death)) | Herbicidal effects Crabgrass (Digitaria adsendens) [21]: 4 (6-10 (Severe damages)); Herbicidal effects Redroot Pigweed (Redroot Pigweed [22]): 5 (0-5 (Death)); Herbicidal effects Foxtail (Setaria viridis) [23]: 4 (6-10 (Severe damages)); Herbicidal effects Johnsongrass (Johnsongrass [24]): 5 (0-5 (Death)); Herbicidal effects Common lambquarters (Common lambsquarters [25]): 5 (0-5 (Death)) |
| CCCCOC(OCCCC)c1ncccc1Oc1nc(OC)cc(OC)n1 [Compound No. 4] | 0 (91-100 (No damages)) | 0 (91-100 (No damages)) | 0 (91-100 (No damages)) | 0 (91-100 (No damages)) | 0 (91-100 (No damages)) | 0 (91-100 (No damages)) | 0 (91-100 (No damages)) | 5 (0-5 (Death)) | 5 (0-5 (Death)) | 5 (0-5 (Death)) | 5 (0-5 (Death)) | 5 (0-5 (Death)) | 5 (0-5 (Death)) | 5 (0-5 (Death)) | 0 (91-100 (No damages)) | 5 (0-5 (Death)) | 4 (6-10 (Severe damages)) | 4 (6-10 (Severe damages)) | 5 (0-5 (Death)) | 5 (0-5 (Death)) | Herbicidal effects Crabgrass (Digitaria adsendens) [21]: 5 (0-5 (Death)); Herbicidal effects Redroot Pigweed (Redroot Pigweed [22]): 5 (0-5 (Death)); Herbicidal effects Foxtail (Setaria viridis) [23]: 5 (0-5 (Death)); Herbicidal effects Johnsongrass (Johnsongrass [24]): 5 (0-5 (Death)); Herbicidal effects Common lambquarters (Common lambsquarters [25]): 5 (0-5 (Death)) |
